Experimental data published in US6649656B1, “Anthranilic acid derivatives” (Teijin Limited, priority 1998, dated 2003).
Like-named read-outs stand apart in the source and are kept apart here.

How the values were obtained:
Format in all cases: cell-based
[1] = tested on: L929 cells; test: Measurement of cytotoxicity using mouse tumor cell L929 (neutral red assay)
Protocol: [Procedure] The cytotoxicity action on tumor cell was measured by neutral red assay (the method described in the Journal of Tissue Culture Methodology vol.9, p.7 (1984) and Toxicology Letters, vol.24, p.119 (1985)). Concretely, L929 cells (5×10^4 cells/ml, 10% FCS/RPMI) were added to the wells of a 96 well ELISA plate at a rate of 100 μL each and cultured for a night, and the testing compounds of respective measurement concentrations were dissolved in DMSO solution and added to the above cells. The culture was continued for 3 days, and 2.0 μL of Neutral Red was added to attain the final concentration of 0.01%. The mixture was incubated for 1 hour at 37° C., the supernatant of the cell culture product was removed and the residue was washed twice with 200 μL of PBS to remove excess Neutral Red. Thereafter, the dye taken into the cell was extracted by adding 100 μL of 50% ethanol-1% acetic acid aqueous solution and the amount of the dye was determined by measuring the absorbance at 490 nm. The cytotoxicity was determined at each concentration of the test compound taking the cytotoxicity free from the drug as 100%. […] Two sets of measurement were performed for each test under the same condition and the average value was used as the test result.

[2] = tested on: IgE antibody production from human lymphocyte; test: Human in vitro IgE antibody production suppressing activity (lymphocyte culture with IL-4 + IL-10 + anti-CD40 antibody, sandwich ELISA)
Protocol: (§1) The concentrations of IgE and IgG antibodies were measured by the following method according to the method described in the Journal of Immunology vol.146, pp.1836-1842, 1991 and the Journal of Immunology vol. 147, pp.8-13, 1991.
(§2) Concretely, lymphocyte was separated from the peripheral venous blood of healthy person by density gradient centrifugation. The obtained lymphocyte was washed, suspended in a culture liquid (RPMI-1640 (product of Gibco Co.)+10% heat-inactivated FCS (product of Whittaker Co.)+100 μg/ml streptomycin+100 U/ml penicillin G+2 mM L-glutamine) and cultured for a week in the presence of interleukin 4 (IL-4, product of GENZYME Co.) (0.1 μg/ml), anti-CD40 antibody (antiCD40Aab, product of BIOSOURCE Co.), clone B-B20) (2 μg/ml) and interleukin 10 (IL-10, product of GENZYME Co.) (0.2 μg/ml) in the presence or absence of the compounds of the present invention described in the Tables 10 to 15 at various concentrations as test drugs.
(§3) The culture liquid was added to the culture system, the culture was continued for additional one week, and the concentrations of IgE and IgG antibodies in the supernatant were measured by sandwich ELISA method.
(§4) The measurement by ELISA method was carried out according to the known ELISA method by using rabbit anti-human IgE(ε) antibody (product of ICN Co.) as the primary antibody and biotin.anti-human IgE monoclonal antibody (G7-26, product of PharMingen Co.) as the secondary antibody for the measurement of IgE antibody concentration and anti-human IgG monoclonal antibody (G18-145, product of PharMingen Co.) as the primary antibody and biotin-donkey anti-human IgG antibody (H+L) (product of Jackson Co.) as the secondary antibody for the measurement of IgG antibody concentration, and using avidin-biotin-hourse radish peroxidase (ABC kit, product of Vector Lab.) as the enzyme and TMB (3,3′,5,5′-tetramethylbenzidine) microwell peroxidase substrate system (product of Kirkegaard & Perry Laboratories Inc.) as the substrate.
(§5) The value of IC50 and the suppressing ratio (%) at the test drug concentration of 1 μM were calculated based on the concentration attained in the absence of the compound of the present invention (reference: Ueshimna, et al. American Academy of Allergy & Immunology, 1995 Annual Meeting, Program No.818).

[3] = tested on: IgG antibody production from human lymphocyte; test: Human in vitro IgG antibody production (same lymphocyte culture, sandwich ELISA); details: IgG antibody production
Protocol: as §1, §2, §3, §4, §5

[4] = tested on: Cultured human cancer cells; test: Carcinostatic action on cultured human cancer cell (sulforhodamine B; GI50, TGI, LC50); details: for CC50 / GI50: Homo sapiens
Protocol: [Procedure] Cultured human cancer cells (39 kinds) were scattered on a 96 well plate, a solution of the testing substance (5-stage concentrations starting from 10^−4 M and diluted 10 times to 10^−8 M) was added thereto on the next day and the cells were cultured for 2 days. The number of the proliferated cells on each plate was determined by colorimetric quantitative analysis with sulforhodamine B. The concentration to suppress the proliferation of cell by 50% (GI50) compared with a control (free from the testing substance) was calculated and the following values (concentrations) were calculated based on the number of cells immediately before the addition of the testing substance.
TGI: concentration to suppress the proliferation to a standard cell number (free from the change of apparent number of cells)
LC50: concentration to decrease the number of cells to 50% of the standard cell number (cytocidal activity)
The proliferation-suppressing results of three testing substances 124, 257 and 983 on 9 representative cancer cell strains are collectively shown in the Tables 93 to 95.

[5] = 72 h, cytotoxic activity against L929, neutral red assay, 3 days culture, read-out: LD50 (the source's name)
[6] = L929, 72 h, read-out: LD50 (μM)

O=C(Cc1ccc(Oc2ccc(OCC3(NSc4ccccc4)CCCC3)cc2)cc1)Nc1ccccc1C(=O)O [compound 268]
CC50 [1, 5]: 0.16 µM

O=C(Cc1ccc(Oc2ccc(OCC3(NC(=O)c4ccccc4)CCCC3)cc2)cc1)Nc1ccccc1C(=O)O [compound 74]
CC50 [1, 6]: > 5 µM

CN(C)CCOc1ccc(Oc2ccc(CC(=O)Nc3ccccc3C(=O)O)cc2)cc1 [compound 47]
CC50 [1, 5]: 0.2 µM

O=C(Cc1ccc(Oc2ccc(O[C@H]3CC[C@@H](NC(=O)c4ccc(Oc5cc(Cl)cc(Cl)c5)o4)CC3)cc2)cc1)Nc1ccccc1C(=O)O [compound 248]
CC50 [1, 5]: 0.085 µM

Cn1c(C(=O)N[C@H]2CC[C@@H](Oc3ccc(Oc4ccc(CC(=O)Nc5ccccc5C(=O)O)cc4)cc3)CC2)cc2ccccc21 [compound 167]
CC50 [1, 5]: 0.18 µM

O=C(Cc1ccc(Oc2ccc(O[C@H]3CC[C@@H](NC(=O)c4ccc(-c5ccccc5)cc4)CC3)cc2)cc1)Nc1ccccc1C(=O)O [compound 192]
CC50 [1, 5]: 0.26 µM

O=C(Nc1ccccc1C(=O)O)c1ccc(Oc2ccc(OCCN3CCCCC3)cc2)cc1 [compound 93]
IC50 ([2]; IgE antibody production): 0.738 µM | inhibition at 1 µM ([2]; test drug concentration 1 μM, IL-4 + IL-10 + anti-CD40 antibody, read-out: IgE production suppressing ratio (%)): 56.2% | IC50 [3]: > 10 µM

O=C(Cc1ccc(Oc2ccc(OC3CCN(Sc4ccc(Cl)c(Cl)c4)CC3)cc2)cc1)Nc1ccccc1C(=O)O [compound 257]
TGI ([4]; HBC-4): 18 µM | TGI ([4]; HCT-15): 17 µM | CC50 ([4]; HBC4, HBC-4): 58 µM | GI50 ([4]; HBC4, HBC-4): < 0.01 µM | CC50 ([4]; HCT-15): 53 µM | GI50 ([4]; HCT-15): < 0.01 µM | CC50 ([4]; MKN-74): > 100 µM | GI50 ([4]; MKN-74): < 0.01 µM | CC50 ([4]; NCI-H460): 44 µM | GI50 ([4]; NCI-H460): < 0.01 µM | CC50 ([4]; OVCAR-8): 59 µM | GI50 ([4]; OVCAR-8): < 0.01 µM | CC50 ([4]; PC-3): 69 µM | GI50 ([4]; PC-3): 10 µM | CC50 ([4]; RXF-631L): 42 µM | GI50 ([4]; RXF-631L): < 0.01 µM | CC50 ([4]; SF-539): 51 µM | GI50 ([4]; SF-539): < 0.01 µM | CC50 ([4]; LOX-IMVI): 44 µM | GI50 ([4]; LOX-IMVI): < 0.01 µM | TGI ([4]; LOX-IMVI): 10 µM | TGI ([4]; MKN-74): 16 µM | TGI ([4]; NCI-H460): 11 µM | TGI ([4]; OVCAR-8): 23 µM | TGI ([4]; PC-3): 26 µM | TGI ([4]; RXF-631L): 14 µM | TGI ([4]; SF-539): 17 µM

O=C(Cc1ccc(Oc2ccc(OCc3ccncc3)cc2)cc1)Nc1ccccc1C(=O)O [compound 37]
CC50 [1, 6]: 1.02 µM

O=C(Cc1ccc(Oc2ccc(OC3CCC(NC(=O)Nc4ccccc4)CC3)cc2)cc1)Nc1ccccc1C(=O)O (centres unmarked) [compound 138]
CC50 [1, 5]: 0.13 µM

O=C(Cc1ccc(Oc2ccc(OC3CCC(NS(=O)(=O)c4ccc(Cl)c(Cl)c4)CC3)cc2)cc1)Nc1ccccc1C(=O)O (centres unmarked) [compound 124]
TGI ([4]; HBC-4): 18 µM | TGI ([4]; HCT-15): 17 µM | CC50 ([4]; HBC4, HBC-4): 57 µM | GI50 ([4]; HBC4, HBC-4): 0.25 µM | CC50 ([4]; HCT-15): 58 µM | GI50 ([4]; HCT-15): 0.17 µM | CC50 ([4]; MKN-74): > 100 µM | GI50 ([4]; MKN-74): 0.086 µM | CC50 ([4]; NCI-H460): 69 µM | GI50 ([4]; NCI-H460): 0.091 µM | CC50 ([4]; OVCAR-8): 57 µM | GI50 ([4]; OVCAR-8): 3.1 µM | CC50 ([4]; PC-3): 55 µM | GI50 ([4]; PC-3): 10 µM | CC50 ([4]; RXF-631L): 38 µM | GI50 ([4]; RXF-631L): 0.13 µM | CC50 ([4]; SF-539): 57 µM | GI50 ([4]; SF-539): 0.13 µM | CC50 ([4]; LOX-IMVI): 45 µM | GI50 ([4]; LOX-IMVI): 0.09 µM | TGI ([4]; LOX-IMVI): 10 µM | TGI ([4]; MKN-74): 16 µM | TGI ([4]; NCI-H460): 14 µM | TGI ([4]; OVCAR-8): 23 µM | TGI ([4]; PC-3): 24 µM | TGI ([4]; RXF-631L): 12 µM | TGI ([4]; SF-539): 26 µM | CC50 [1, 5]: 0.14 µM

N#Cc1cccc(SN2CCC(Oc3ccc(Oc4ccc(CC(=O)Nc5ccccc5C(=O)O)cc4)cc3)CC2)c1 [compound 264]
CC50 [1, 5]: 0.156 µM

COC(=O)N1CCC[C@H]1COc1ccc(Oc2ccc(CC(=O)Nc3ccccc3C(=O)O)cc2)cc1 [compound 59]
CC50 [1, 6]: 2.4 µM
